In patent US4038278A, “4-Aminopyrimidium derivatives and preparation thereof” (Eisai Co., Ltd., priority 1974, dated 1977):
Where two headings read alike, the source gives them in different places.

Assays:
stomach mucosa = experiment: Degree of gastric trouble (visible observation of stomach mucosa); type: in vivo, rat (Wistar strain); conditions: 100 mg/kg p.o.; sum of scores (0-3) of 4 rats
Description: 2. Degree of gastric trouble
The rats used in above test of anti-edematic effects were slaughtered, and their stomaches were visibly observed in accordance with the under-mentioned bases. Measurement values were decided by summing up the respective data of 4 tests of each group.
Visible observation of the stomach mucosa
No abnormality is recognized
Slight edema, congestion or slight erosion
Scattered or limitted erosion and spotted
Heavy erosion, linear bleeding or enlarged

[1] = test system: Carrageenin edema of the hind paw of the rat; experiment: Anti-edematic effect, Carrageenin paw edema method, oral, in rats; type: in vivo, rat (Wistar strain); conditions: 100 mg/kg p.o.
Method: Test animal: For the respective compounds, four male rats of the Wistar strain weighing approximately 150g were used. The test animals were made to fast for approximately 16 hours.
The anti-edematic test is carried out by determining the increase of edema due to the injection of […], in accordance with the paw edema method. [see Winter. C. A. et al; Proc. Soc. exp.
The test compounds were respectively suspended in five percent of aqueous solution of gum Arabic, and the suspensions were orally administered to the rats one hour before the injection of the Carrageenin. Activities were determined by measuring the volume of the hind paw of the rat three hours after the administration of the Carrageenin.

[2] = test system: acetic acid Writhing syndrome; experiment: Anti-acetic acid Writhing test, oral, in mice; type: in vivo, mouse (dd strain); conditions: Mus musculus, po, read-out: ED50 (anti-acetic acid Writhing)
Method: Comparative tests for anti-acetic acid Writhing activity in mice were made to the Compound A of the present invention and 4-amino-pyrimidine-N^1 -phenacylbromide (hereinafter referred to as Compound C), using Aspirin as a control compound. The test compounds were respectively suspended in an of aqueous solution of containing five percent of gum Arabic. Eight male mice of dd strain weighing approximately 20 - 23g were used as the test animals. The mice were made to fast for about 19 hours.
After 50 minutes or 170 minutes of administration of the test compounds, 0.1 ml of 0.7% acetic acid solution per 10 g. of the body weight of the test animal was injected intraperitoneally. Regarding the expansion of the hind paw of the mice induced during 15 minutes after the injection, a number of Writhing syndromes were encountered and recorded. Effects of the respective test compounds against the usual behavior of the mice were also observed. In the above test, 5% gum arabic solution per se was administered to the control animal.
Various doses of the respective compounds were orally administered to eight mice. After 1 or 3 hours of the administration, a anti-acetic acid Writhing test was carried out.

## CC(=O)Oc1ccccc1C(=O)O [Aspirin, reference compound]
Stomach mucosa
  Degree of gastric trouble: 12
[1]; rats, 3 hours after Carrageenin
  Anti-edematic ratio (%): 35.8%
[1]; Control compound (Aspirin) = 100
  Comparison with Control Compound (anti-edematic ratio): 100
[2]; 1 h
  ED50: 410 mg/kg
[2]; 3 h
  ED50: 253 mg/kg
